Results on two compounds are retold here after EP0356128A2, “3-(Aminopropyl)methyl phosphinic acid as a therapeutic agent” (SMITH KLINE & FRENCH LABORATORIES LIMITED, priority 1988, dated 1990).

The term pIC50 denotes the negative decadic logarithm of the IC50, by convention in mol/L. The low end stands for a high IC50, the high end for a low IC50.

pIC50: −log10 of the molar value.

For test [1], the target named is GABAB receptor (Rattus norvegicus, UniProt Q9Z0U4). Description: biochemical.
Method: Male rats were killed by decapitation. […] The homogenate was centrifuged at 1000 g to give a crude nuclear pellet (P₁) and a supernatant fraction enriched in myelin, synaptosomes and mitochrondria. The supernatant was collected and recentrifuged for 20 minutes at 20,000 g. The resulting pellet (P₂) was lysed by resuspension in distilled water and the mixture centrifuged for 20 minutes at 8,000 g. The supernatant was used to rinse off the upper layer of the pellet with the aid of a Pasteur pipette. The combined suspension was centrifuged for 20 minutes at 48,000 g. The final crude synaptic membranes were washed twice with distilled water and were either resuspended in buffer for further washing prior to use as fresh tissue or were stored frozen at -20°C. […]
[³H]-GABA (10 nM final concentrations 65 Ci/mmol) was added to each tube with or without varying concentrations of unlabelled test compound (final volume 1.0 ml). […] GABAB binding was determined by using ³H-GABA in the presence of isoguvacine (40 µM), a GABAA receptor ligand. […]
Non-specific binding was subtracted from the total amount of radioactivity bound in the absence of any drug to yield the amount of ligand specifically bound. The amount of radioactivity specifically bound at a given concentration of non-radioactive drug was expressed as a percentage of the total ligand specifically bound.
Test [2] has as its target GABAA receptor. Description: [3H]-GABA radioligand binding assay, GABAA binding (in the presence of baclofen). As to conditions: inhibition of specific GABAA binding to rat synaptic membranes; [³H]-GABA 10 nM, baclofen 100 µM; read-out: IC₅₀ (nM) GABAA. Here is the method: Male rats were killed by decapitation.
The final tissue was resuspended in fresh buffer for assay and transferred in 0.8 ml aliquots to microtubes (0.5 - 1.0 mg protein.tube).

GABAB receptor, sequence (Q9Z0U4 17-960 limits assumed): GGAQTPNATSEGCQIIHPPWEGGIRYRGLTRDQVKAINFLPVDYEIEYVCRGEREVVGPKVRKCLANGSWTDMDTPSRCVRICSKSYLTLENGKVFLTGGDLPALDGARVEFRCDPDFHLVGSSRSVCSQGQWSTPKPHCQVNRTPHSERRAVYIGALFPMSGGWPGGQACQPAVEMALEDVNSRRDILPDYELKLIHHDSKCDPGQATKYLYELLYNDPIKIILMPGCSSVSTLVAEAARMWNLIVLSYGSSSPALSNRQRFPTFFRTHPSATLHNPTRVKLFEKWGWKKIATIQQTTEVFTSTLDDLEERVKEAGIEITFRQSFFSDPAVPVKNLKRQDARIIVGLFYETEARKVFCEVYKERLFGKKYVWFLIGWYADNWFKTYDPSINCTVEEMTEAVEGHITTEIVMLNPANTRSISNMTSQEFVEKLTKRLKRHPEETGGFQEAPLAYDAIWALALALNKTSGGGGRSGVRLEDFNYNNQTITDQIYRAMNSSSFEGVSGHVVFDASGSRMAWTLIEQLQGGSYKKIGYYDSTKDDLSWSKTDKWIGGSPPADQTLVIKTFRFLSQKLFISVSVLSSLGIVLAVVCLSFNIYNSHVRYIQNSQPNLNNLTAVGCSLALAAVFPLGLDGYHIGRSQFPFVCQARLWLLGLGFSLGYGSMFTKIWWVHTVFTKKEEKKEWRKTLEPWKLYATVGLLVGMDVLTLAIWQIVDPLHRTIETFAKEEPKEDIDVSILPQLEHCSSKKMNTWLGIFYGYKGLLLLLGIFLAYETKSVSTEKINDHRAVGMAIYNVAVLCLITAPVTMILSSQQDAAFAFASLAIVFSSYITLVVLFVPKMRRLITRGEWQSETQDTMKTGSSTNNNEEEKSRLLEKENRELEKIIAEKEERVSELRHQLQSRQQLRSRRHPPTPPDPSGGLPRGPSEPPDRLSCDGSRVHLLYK
GABAB receptor, sequence (O88871 41-940 partner): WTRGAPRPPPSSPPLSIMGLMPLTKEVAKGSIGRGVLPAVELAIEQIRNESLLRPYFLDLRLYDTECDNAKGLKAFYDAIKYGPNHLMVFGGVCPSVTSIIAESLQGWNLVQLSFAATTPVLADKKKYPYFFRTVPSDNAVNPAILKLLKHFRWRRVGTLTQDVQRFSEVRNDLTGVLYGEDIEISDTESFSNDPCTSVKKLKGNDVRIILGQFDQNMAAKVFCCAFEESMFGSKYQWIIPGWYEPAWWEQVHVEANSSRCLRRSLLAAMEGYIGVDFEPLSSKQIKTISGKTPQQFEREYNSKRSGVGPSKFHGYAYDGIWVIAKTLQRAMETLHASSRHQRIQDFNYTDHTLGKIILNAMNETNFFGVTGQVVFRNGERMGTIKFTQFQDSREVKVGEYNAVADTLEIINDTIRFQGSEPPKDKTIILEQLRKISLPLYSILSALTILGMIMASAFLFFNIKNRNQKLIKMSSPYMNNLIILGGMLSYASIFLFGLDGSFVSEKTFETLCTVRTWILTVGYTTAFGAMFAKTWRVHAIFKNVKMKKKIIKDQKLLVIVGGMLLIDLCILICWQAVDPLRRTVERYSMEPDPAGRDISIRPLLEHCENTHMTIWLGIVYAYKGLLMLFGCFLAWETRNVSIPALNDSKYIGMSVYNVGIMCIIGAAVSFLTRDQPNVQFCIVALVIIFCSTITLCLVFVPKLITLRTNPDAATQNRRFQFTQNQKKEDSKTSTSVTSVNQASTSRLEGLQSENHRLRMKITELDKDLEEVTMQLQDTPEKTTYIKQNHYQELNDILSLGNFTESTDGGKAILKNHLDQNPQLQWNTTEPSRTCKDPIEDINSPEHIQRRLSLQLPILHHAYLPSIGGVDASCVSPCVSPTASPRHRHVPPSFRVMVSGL

`NCCC[PH](=O)O` [3-aminopropyl phosphinic acid]: the pIC50 in test [1] is 9.00. Also, the IC50 in test [2] came to 420 nM.
With `CP(=O)(O)CCCN` [Example 1, 3-(aminopropyl)methyl phosphinic acid], the IC50 in test [2] was 23000 nM.
